Laboratory results: patent US20020058708A1, “Compositions containing hypotriglyceridemically active stilbenoids” (priority 2000, published 2002)

What was measured:
[1] = reported by Arichi et al. 1982; cited from earlier work
[2] = tested on: fat fed, STZ treated male Sprague Dawley rats; experiment: In vivo hypotriglyceridemic activity: serum triglyceride levels in fat-fed STZ treated rats; parameters: species or system rat; details: 250 mg/kg body weight q.d.
From the text: This example illustrates the effectiveness of the stilbenoids of formula (I) in reducing serum triglyceride levels in fat-fed STZ treated male Sprague Dawley rats, i.e., an art-recognized model of hypertriglyceridemia.
This example illustrates the effectiveness of the stilbenoids of formula (I), e.g. longistyline A-2-carboxylic acid (Compound A) in reducing serum triglyceride levels in fat fed, STZ treated male Sprague Dawley rats, i.e., an art recognized model of hypertriglyceridemia. […]
Blood samples from tail snips bleeds were collected six hours after the dose on day one, and three (3) and six (6) hours after the administration of the dose on days 2 through 4 into M brand (Becton Dickinson, Franklin Lakes, N.J.) serum separator tubes, and centrifuged at 12,000 rpm for 10 minutes. Serum was removed and triglyceride levels were measured using enzymatic […] methods (M. W. McGowan, et al., Clin. Chem. 29, 538 (1983) and P Trinder, Ann. Clin. Biochem. 6, 24 (1969)) using Sigma Diagnostic Kits, Sigma Chemical Company, St. Louis, Mo.
Triglyceride levels are expressed as the mean ±SEM. Data were analyzed by one-way analysis of variance (ANOVA), followed by post-hoc Fisher's protected least squares difference (PLSD) tests. […]

[3] = Daily mean body weight of treated fat fed, STZ treated rats; assay type: in vivo, rat; details: 250 mg/kg q.d.; FIG. 3
Protocol: (§1) FIG. 3 is a line graph showing the mean body weight […] in fat fed, STZ treated rats administered with GELUCIRE™ vehicle only; and 3-hydroxy-4-(3-methyl-2-butenyl)-5-methoxystilbene-2-carboxylic acid (Compound A). -∘- represents vehicle; and -▪- represents Compound A administered at 250 mg/kg q.d. Animals were administered the vehicle and compounds at 24, 48, 72 and 96 h, and serum triglyceride levels were measured at 0, 30, 51, 54, 75 and 80 hours after the oral administration. All data points N=8. *P<0.05 (analysis of variance (ANOVA), one factor).
(§2) Male Sprague Dawley rats arrival from Charles River Laboratories, Hollister, Calif., were fed a high fat (20% by weight) diet (TD 78463) obtained from Harlan Teklad, Madison, Wis., which was stored at 4° C. prior to use. Administration of a high fed diet is a well-known method of inducing hypertriglyceridemia in rats.
(§3) Compound A formulations were prepared fresh daily. The appropriate amount of Compound A in GELUCIRE™ was administered by oral gavage at a volume of 2.5 ml/kg of body weight. Animals were fasted at 8:00 am each day.

[4] = Daily mean food consumption of treated fat fed, STZ treated rats; assay type: in vivo, rat; details: 250 mg/kg q.d.; FIG. 4
Protocol: as §1, with “FIG. 4” for “FIG. 3”, “mean food consumption” for “mean body weight”
as §2, §3

Food intake (daily mean food consumption) [4] | SMILES | Serum triglyceride levels [1] | Liver lipid levels [1] | Serum triglyceride (TG) levels compared with vehicle only ([2]; oral gavage in GELUCIRE vehicle, at each of the time points, p<0.05, FIG. 2) | Mean TG levels compared with GELUCIRE vehicle treatment group at individual sampling times ([2]; from day 2 through the end of treatment) | Gain in rat body weight over the course of treatment [3]
– | OC[C@H]1OC(Oc2c(O)cc(O)cc2C=Cc2ccc(O)cc2)[C@H](O)[C@@H](O)[C@@H]1O (stereo partly drawn) [2,3,5,4′-tetrahydroxy stilbene-2-O-D-glucoside] | reduce | – | – | – | –
– | OC[C@H]1O[C@@H](Oc2cc(O)cc(/C=C/c3ccc(O)cc3)c2)[C@H](O)[C@@H](O)[C@@H]1O [Piceid, 3,4′,5-trihydroxystilbene-3-O-β-D-glucopyranoside] | lower | lower | – | – | –
not effected by the treatments | COc1cc(/C=C/c2ccccc2)c(C(=O)O)c(O)c1CC=C(C)C [Compound A, 3-hydroxy-4-(3-methyl-2-butenyl)-5-methoxystilbene-2-carboxylic acid] | – | – | significantly lower | significantly lower | normal and similar among the treatment groups
